From patent publication US20100003712A1, “BIOMARKER FOR ASSESSING RESPONSE TO CHYMASE TREATMENT” (priority 2008, published 2010)
One block for each molecule: values may come before it.

How the values were obtained:
[1] = test system: other serine proteases; conditions: cited from earlier work
[2] = test system: IL-18 levels in saliva; assay: IL-18 levels in human saliva after 14 days of dosing; type: in vivo; conditions: human subjects
Description: To examine the dose effects of COMPOUND NO. 1 on the IL-18 levels, subjects were treated with 0, 100, 600 mg of COMPOUND NO. 1 for 14 days and the saliva samples were collected. IL-18 levels in the samples were measured by ELISA as described above. […] 1 at 600 mg as compared to the placebo group (FIG. 8). The IL-18 levels were similar in the placebo group and the subjects treated with COMPOUND NO. 1 at 100 mg.

[3] = biological target: T1, recombinant human chymase (Homo sapiens, UniProt P23946); assay: reversal of chymase-induced decrease of IL-18 levels in human saliva (ELISA); type: biochemical; conditions: 37° C.; for dose-dependent reversal of chymase-induced decrease of IL-18 levels: 0-10,000 nM compound, human saliva; for dose-dependent reversal of chymase-induced decrease of IL-18 levels / IC50: 80 nM chymase, 1 hr; for IC50: n=3, ELISA, read-out: IC50 for reversal of chymase-induced IL-18 reduction; for reversal of chymase-induced reduction of IL-18 levels: chymase 2 μg/ml, COMPOUND No. 3 1 μM or chymostatin 3 μg/ml, 1 h
T1 construct: made in house
T1 sequence (P23946 22-247): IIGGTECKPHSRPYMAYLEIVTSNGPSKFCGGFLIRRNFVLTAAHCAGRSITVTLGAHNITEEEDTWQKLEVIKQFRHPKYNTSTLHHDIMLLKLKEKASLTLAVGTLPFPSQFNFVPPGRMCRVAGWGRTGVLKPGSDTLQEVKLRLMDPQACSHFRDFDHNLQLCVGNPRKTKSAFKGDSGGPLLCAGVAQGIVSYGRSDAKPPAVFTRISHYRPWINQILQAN
Description: (§1) The digestion was measured using the enzyme-linked immunosorbent assay (ELISA) kit (R&D Systems). […] As the ELISA detection provided quantitative measurement and high-throughput screening capacity, it was used for the following experiments.
Next, activities of the recombinant chymase and COMPOUND NO. 3 were examined with endogenous IL-18.
The dose effects of the chymase inhibitors on IL-18 levels were also examined. […] The IL-18 levels were measured using ELISA as described above.
Next, the effects of various serine proteases and inhibitors on IL-18 levels were examined.

[4] = test system: tryptase; assay: reversal of tryptase-induced reduction of IL-18 in saliva (ELISA); type: biochemical; conditions: tryptase 1 μg/ml + compound 1 μM; 37° C., 1 h
Description: (§2) Next, the effects of various serine proteases and inhibitors on IL-18 levels were examined. The saliva samples were incubated with vehicle (DMSO/PBS), chymase (2 μg/ml), COMPOUND No. 3 (1 μM), chymase (2 μg/ml)+COMPOUND No. 3 (1 μM), chymostatin (3 μg/ml), chymase (2 μg/ml)+chymostatin (3 μg/ml), cathepsin G (2 μg/ml), cathepsin G (2 μg/ml)+COMPOUND No. 3 (1 μM), elastase (0.5 μg/ml), elastase (0.5 μg/ml)+COMPOUND No. 3 (1 μM), proteinase 3 (2 μg/ml), proteinase 3 (2 μg/ml)+COMPOUND No. 3 (1 μM), tryptase (1 μg/ml), or tryptase (1 μg/ml)+COMPOUND 3 (1 μM) at 37° C. for 1 h. […] In contrast, cathepsin G and elastase had no effect on IL-18 levels. […] However, the reduction of IL-18 by these two enzymes was not reversed by COMPOUND No. 3.

[5] = test system: endogenous chymase activity and other proteases activity in saliva samples; assay: IL-18 levels in saliva samples incubated with protease inhibitors, no added chymase (ELISA); type: biochemical, human; conditions: 37° C., 1 hour
Description: To determine the effects of additional protease inhibitors on the endogenous IL-18 levels, the pan protease inhibitors and/or COMPOUND No. 3 were incubated with saliva samples at 37° C. for 1 hour. […] Ten μM of COMPOUND NO.

[6] = biological target: T2, proteinase 3 (Homo sapiens, UniProt P24158); assay: reversal of proteinase 3-induced reduction of IL-18 in saliva (ELISA); type: biochemical; conditions: proteinase 3 2 μg/ml + compound 1 μM; 37° C., 1 h
T2 sequence (P24158 28-248): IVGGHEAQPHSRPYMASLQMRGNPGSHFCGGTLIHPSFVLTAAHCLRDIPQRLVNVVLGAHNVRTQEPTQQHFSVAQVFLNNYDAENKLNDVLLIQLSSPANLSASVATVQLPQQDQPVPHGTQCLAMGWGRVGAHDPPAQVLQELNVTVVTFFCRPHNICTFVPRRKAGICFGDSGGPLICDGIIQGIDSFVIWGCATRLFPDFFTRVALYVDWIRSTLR
Description: as §2

[7] = test system: endogenous IL-18; assay: effect of serine proteases on endogenous IL-18 levels in saliva samples (ELISA); type: biochemical, human; conditions: 37° C.; for effect of serine protease on IL-18 levels: saliva, 1 h, chymase 2, cathepsin G 2, elastase 0.5, proteinase 3 2, tryptase 1 μg/ml
Description: Next, activities of the recombinant chymase and COMPOUND NO. 3 were examined with endogenous IL-18. One ml of saliva samples were collected from six subjects and incubated with vehicle (DMSO/PBS), chymase (80 nM), and chymase+COMPOUND No. 3 (1 μM) at 37° C. for 3 hr.
To determine the dose effects of the recombinant chymase on IL-18 levels, 1-300 nM of the recombinant chymase were incubated with saliva samples at 37° C. for 1 hr.
as §2

[8] = test system: recombinant mature human IL-18; assay: cleavage of recombinant mature human IL-18 by chymase (Western blot, ELISA); type: biochemical; conditions: 37° C.
Description: A recombinant human chymase was generated according to Kervinen et al. (2008). A hundred ng of the recombinant mature human IL-18 (rIL-18, R&D Systems, 614 McKinley Place NE, Minneapolis, Minn. 55413) was incubated with the recombinant chymase (w/w 1:25) in PBS at 37° C. for various time points. The digestion products were separated on a 4-12% gradient gel. Western blot analysis was done with a specific monoclonal antibody against human IL-18. […] The exact cleavage sites were not clear. Without being bound to any theory, the mature IL-18 may be cleaved by the recombinant human chymase into the ˜16 kD fragment which may be further degraded into the ˜12 kD fragment. […] In addition, the chymase-induced cleavage of rIL-18 was both time (FIG. 1A) and dose dependent (FIG. 1B).
as §1

Molecule: CP(=O)(O)C(C(=O)N/C=C/c1ccc(F)c(F)c1)c1csc2ccc(Cl)cc12 (stereo not shown) [COMPOUND NO. 1]
cross activity with other serine proteases [1]: little or no cross activity
IL-18 levels in saliva compared to the placebo group, 100 mg ([2]; 100 mg for 14 days): similar
IL-18 levels in saliva compared to the placebo group, 600 mg ([2]; 600 mg for 14 days, p<0.03): significant increase

Molecule: CC(C)OC(=O)OCOP(=O)(O)C(C(=O)N/C=C/c1cc(Cl)cc(Cl)c1)c1csc2ccc(Cl)cc12 (stereo not shown) [COMPOUND NO. 2]
dose-dependent reversal of chymase-induced decrease of IL-18 levels [3]: dose-dependently reversed
IC50 [3]: 1460 ± 563 nM

Molecule: elastase
effect of serine protease on IL-18 levels [7]: no effect

B1: cathepsin G: serine protease (protein, UniProt P08311 21-244, looked up)
Cathepsin G: IIGGRESRPHSRPYMAYLQIQSPAGQSRCGGFLVREDFVLTAAHCWGSNINVTLGAHNIQRRENTQQHITARRAIRHPQYNQRTIQNDIMLLQLSRRVRRNRNVNPVALPRAQEGLRPGTLCTVAGWGRVSMRRGTDTLREVQLRVQRDRQCLRIFGSYDPRRQICVGDRRERKAAFKGDSGGPLLCNNVAHGIVSYGKSSGVPPEVFTRVSSFLPWIRTTMRS
effect of serine protease on IL-18 levels [7]: no effect

B3: Proteinase 3: serine protease (protein, UniProt P24158 28-248, looked up)
Myeloblastin: T2 sequence (P24158 28-248)
effect of serine protease on IL-18 levels [7]: reduced IL-18 levels significantly

Now from value to molecule, other results behind:

reversal of tryptase-induced reduction of IL-18 [4]: not reversed
reversal of the decrease in IL-18 levels in incubated saliva ([5]; 1 or 10 μM): reversed some of the decrease
increase of IL-18 levels at 10 μM compared with 1 μM [5]: almost two fold
dose-dependent reversal of chymase-induced decrease of IL-18 levels [3]: dose-dependently reversed
IC50 [3]: 3600 ± 928 nM
reversal of chymase-induced decrease of IL-18 levels, subjects 1-3 and 6 ([3]; chymase 80 nM + compound 1 μM, 3 hr, subjects 1-3 and 6): reversed completely
reversal of chymase-induced decrease of IL-18 levels, subjects 4 and 5 ([3]; chymase 80 nM + compound 1 μM, 3 hr, subjects 4 and 5): reverted to a large degree
reversal of chymase-induced reduction of IL-18 levels [3]: reversed this reduction
reversal of chymase-induced decrease of IL-18 levels ([3]; saliva of six subjects, chymase 80 nM + compound 1 μM, 3 hr): reversed or prevented
reversal of proteinase 3-induced reduction of IL-18 [6]: not reversed
Molecule: O=C(N/C=C/c1cc(Cl)cc(Cl)c1)C(c1csc2ccc(Cl)cc12)P(=O)(O)O (stereo not shown) [COMPOUND NO. 3]

reversal of chymase-induced reduction of IL-18 levels [3]: reversed the reduction
Molecule: CC(C)C[C@H](NC(=O)[C@@H](NC(=O)N[C@@H](Cc1ccccc1)C(=O)O)[C@@H]1CCN=C(N)N1)C(=O)N[C@H](C=O)Cc1ccccc1 [chymostatin, reference compound]

EC50 ([7]; 1-300 nM chymase in saliva samples, 1 hr, n=3): 60.4 ± 15.2 nM
B2: recombinant chymase: recombinant human chymase generated according to Kervinen et al. (2008) (protein, UniProt P23946 22-247, looked up)
Chymase: T1 sequence (P23946 22-247)
rIL-18 immunoreactivity or levels in the presence of chymase, PBS ([8]; 80 nM chymase, 4 mg/ml rIL-18, PBS, 1.5 h, without chymase ~4000): ~1300 ng/mL
rIL-18 immunoreactivity or levels in the presence of chymase, saliva ([8]; 80 nM chymase, 4 mg/ml rIL-18, saliva, 1.5 h, without chymase ~3,000): ~1,000 ng/ml
cleavage of mature human IL-18 (Western blot) ([8]; 100 ng rIL-18, chymase w/w 1:25, PBS, fragments ~16 and ~12 kD): able to cleave
effect on immunoreactivity or levels of endogenous IL-18 ([7]; chymase 80 nM, saliva of six subjects, 3 hr): decrease
effect of serine protease on IL-18 levels [7]: reduced
